PMC4065102 (PLoS ONE, 2014)
“Also recorded” adds a separate entry of the source. Bridges are numbered along the chain shown (N, C = ends). Where no end group is shown, it is not given here.

What was measured:
[1] = test system: SNU-16 stomach tumor xenografts; experiment: In vivo NIR fluorescence imaging of tumor apoptosis; parameters: species or system mice; details: for fluorescence intensity at tumor site in cisplatin plus cetuximab group compared to cisplatin alone and cetuximab alone / fluorescence intensity at tumor site in treated groups compared to untreated control group: FPR675-labeled peptide 800 nmol/kg i.v., imaging at 90 min; for fluorescence intensity at tumor site in cisplatin plus cetuximab group compared to cisplatin alone and cetuximab alone: after first and second round, linear: p<0.05/p<0.05 vs cisplatin, p<0.01/not significant vs cetuximab, cyclic: p<0.01/p<0.01 vs cisplatin, p<0.001/p<0.01 vs cetuximab; for fluorescence intensity at tumor site in treated groups compared to untreated control group: groups treated with cisplatin, cetuximab, cisplatin plus cetuximab, after first or second round of treatment, n = 3; for background fluorescence signals in other organs, including the liver and lung: whole body NIR fluorescence images, 90 min after i.v. FPR675-labeled peptide
Method: Eight-week old female athymic (nu/nu) Balb/c mice were purchased from Orient laboratories (Seongnam, Korea) and were housed under specific-pathogen-free conditions with laboratory chow and water ad libitum. Stomach tumor xenografts were established by subcutaneously injecting 1 x 10^7 SNU-16 cells in 100 µl saline into the right flank. Tumors were allowed to reach 50–60 mm^3 of volume before randomization and initiation of treatment. […] Changes in tumor size were measured over three weeks. Diameters of tumor were measured with automatic caliper. Tumor volumes were calculated using the formula: volume = (length x width x height)/2, where length, width, and height means the longest dimension, shorter dimension parallel to the mouse body, and diameter of tumor perpendicular to the length and width, respectively. Tumor weights were measured after isolation of tumor mass.
In vivo NIR fluorescence imaging was performed after the first and second round of treatment. Each treatment group (n = 6) was divided into two subgroups (n = 3) for imaging with linear and cyclic form of ApoPep-1, respectively. Linear and cyclic form of FPR675–labeled ApoPep-1 (1.45 mg/kg and 1.54 mg/kg, respectively; equivalent to 800 nmol/kg for each peptide) was injected through the tail vein into mice. At 90 min after administration, mice were anesthetized and subjected to imaging. NIR fluorescence (typically, between 650 and 1100 nm) is favored for in vivo optical imaging because of its low tissue absorption and deep tissue penetration properties. The excitation/emission wavelength of the FPR675 dye used in this study was 675/698 nm. Images were taken using the eXplore Optix optical imaging system (ART Inc., Montreal, Canada). […] The acquisition time for a whole-body scanning was 15 min per mouse. Fluorescence intensity at region of interest (ROI) was measured using a analysis software provided by the manufacturer (ART Inc.).
Figure 2 Monitoring of tumor response by in vivo imaging of apoptosis. […] After the first and second round of treatment, linear or cyclic form of FPR675 NIR fluorescence dye-labeled ApoPep-1 was intravenously injected into mice. In vivo NIR fluorescence images were taken at 90 min after administration. (A) (B) Quantification of NIR fluorescence signal intensity of the region of interest (ROI) in groups injected with linear and cyclic ApoPep-1. Bars represent the signal intensity at ROI obtained from three individual mice (mean ± S.D.). Asterisks represent statistical significance compared to PBS. Asterisks on brackets represent significance in difference between the two groups. * p<0.05, ** p<0.01, and *** p<0.001 by one-way ANOVA (n = 3 per group). (C) (D) Representative NIR fluorescence images by the uptake of linear and cyclic ApoPep-1 to tumor were shown. Scale bars represent normalized fluorescence intensity. Circles represent the ROI.

[2] = Stability of peptides in the serum; format: in vitro ADME, mice; details: mouse serum, 100 µg peptide in 50 µl PBS + 50 µl filtered serum, 37°C, up to 24 h, C18 reverse phase FPLC, absorbance 215 nm, peak identity by MALDI-TOF MS
Method: Peptide stability in the serum was examined as previously described. Blood from mice was collected and allowed to clot, and then serum was obtained by centrifugation at 4°C twice followed by filtration (0.22 µm pore). Peptide (100 µg in 50 µl of PBS) was incubated with 50 µl of filtered serum at 37°C for the indicated time period. The incubated samples were diluted 100-fold and fractionated by C18 reverse phase FPLC with linear gradient of acetonitrile (Vydac protein and peptide C18, 0.1% trifluoroacetate in water for equilibration, and 0.1% trifluoroacetate in acetonitrile for elution). To confirm the identity of the peak from the profiles of C18 reverse phase FPLC, each peak was collected, vacuum dried, and analyzed by mass spectrometry (MS) using an MALDI-TOF mass spectrometer (Life Technologies, Carlsbad, CA).
Figure 5 Stability of linear and cyclic ApoPep-1 in the serum. Linear and cyclic ApoPep-1 peptides were incubated with mouse serum at 37°C for the indicated time periods. (A) (B) Linear and cyclic form of ApoPpep-1 samples and mouse serum were fractionated by C18 reverse-phase FPLC. Y axis represents the absorbance unit at 215 nm. Each peptide peak was indicated by an arrow and separable from serum peaks. (C) (D) MS spectrum of the linear and cyclic peptide peak collected from 24 h FPLC fraction and synthetic linear and cyclic ApoPep-1.

[3] = test system: SNU-16 stomach tumor xenografts; experiment: Anti-tumor treatment of mice and tumor size/weight measurement; format: in vivo; details: 3 weeks after treatment; cisplatin 5 mg/kg i.p. once per week x2, cetuximab 1.5 mg/kg i.p. twice per week x4; p<0.05, p<0.05, p<0.001 (linear ApoPep-1 group); p<0.05, p<0.01, p<0.001 (cyclic group)
Method: At 3 weeks after treatment (endpoint of experiments), tumor volumes were measured and tumors were isolated for the weight measurement.
SNU-16 stomach tumor-bearing mice that were analyzed for imaging signals after the first and second round of treatment were maintained for the measurement of tumor size. […] PBS, phosphate-buffered saline; CPT, cisplatin; CET, cetuximab; CPT+CET, cisplatin plus cetuximab.

[4] = test system: SNU16 human stomach cancer cell line; experiment: In vitro binding of peptides to apoptotic cells (flow cytometry); format: cell-based; details: 10 µM FITC-conjugated peptide 4°C 1 h, or Alexa488-annexin V 15 min RT
Method: SNU16 human stomach cancer cell line was purchased from KCLB (Seoul, Korea). […] After treatment, cells were incubated with 10 µM of fluorescein isothiocyanate (FITC)-conjugated linear or cyclic form of ApoPep-1 at 4°C for 1 h. As control, cells were stained with Alexa488-conjugated annexin V (Life technologies, Carlsbad, CA) for 15 min at RT. Percentages of fluorescent (peptide-bound or annexin V-bound) cells were measured by flow cytometry.
Figure 1 In vitro detection of apoptosis. […] Cells were harvested and incubated with FITC-labeled ApoPep-1 at 4°C for 1 h or with annexin V at room temperature for 15 min. Data represent percentages of apoptotic cells as measured by flow cytometry. (A-C) Percentages of apoptotic cells detected by linear form of ApoPep-1, cyclic form of ApoPep-1, and annexin V, respectively. PBS, phosphate-buffered saline; CPT, cisplatin; CET, cetuximab; CPT+CET, cisplatin plus cetuximab.

CQRPPRC (disulfide 1-7 (inferred)) [cyclic ApoPep-1, cyclic (CQRPPRC, disulfide bonding at amino and carboxy termini) form of ApoPep-1; used FITC-conjugated or FPR675-labeled]
fluorescence intensity at tumor site in cisplatin plus cetuximab group compared to cisplatin alone and cetuximab alone [1]: remarkably higher | fluorescence intensity at tumor site in treated groups compared to untreated control group [1]: significantly higher | background fluorescence signals in other organs, including the liver and lung [1]: Little background fluorescence signals | amount of peptide remaining in the serum, as calculated by peak area ([2]; listed as cyclic form of ApoPep-1): not significantly changed up to 24 h; also recorded: stable in the presence of serum until 24 h

CQRPPR [linear ApoPep-1, Linear (CQRPPR) form of ApoPep-1, histone H1-targeting peptide; used FITC-conjugated or FPR675-labeled]
fluorescence intensity at tumor site in cisplatin plus cetuximab group compared to cisplatin alone and cetuximab alone [1]: higher | fluorescence intensity at tumor site in treated groups compared to untreated control group [1]: significantly higher | background fluorescence signals in other organs, including the liver and lung [1]: Little background fluorescence signals | amount of peptide remaining in the serum, as calculated by peak area ([2]; listed as linear form of ApoPep-1): not significantly changed up to 24 h; also recorded: stable in the presence of serum until 24 h

N.N.[Cl][Pt][Cl] [cisplatin]
tumor volumes compared to untreated control [3]: reduced tumor volumes

B1: annexin V: Alexa488-conjugated annexin V, apoptosis probe that binds to phosphatidylserine (protein, UniProt P08758 2-320, looked up)
Annexin A5: AQVLRGTVTDFPGFDERADAETLRKAMKGLGTDEESILTLLTSRSNAQRQEISAAFKTLFGRDLLDDLKSELTGKFEKLIVALMKPSRLYDAYELKHALKGAGTNEKVLTEIIASRTPEELRAIKQVYEEEYGSSLEDDVVGDTSGYYQRMLVVLLQANRDPDAGIDEAQVEQDAQALFQAGELKWGTDEEKFITIFGTRSVSHLRKVFDKYMTISGFQIEETIDRETSGNLEQLLLAVVKSIRSIPAYLAETLYYAMKGAGTDDHTLIRVMVSRSEIDLFNIRKEFRKNFATSLYSMIKGDTSGDYKKALLLLCGEDD
modifications: Alexa488 conjugate
percentages of apoptotic cells detected by the probe after treatment with cetuximab ([4]; cetuximab 200 µg/ml 24 h): ~40% | percentages of apoptotic cells detected by the probe after treatment with cisplatin ([4]; cisplatin 300 ng/ml 24 h): approximately 43% | percentages of apoptotic cells detected by the probe after treatment with cisplatin plus cetuximab ([4]; cisplatin 300 ng/ml plus cetuximab 200 µg/ml 24 h): ~45%
